The record followed here is patent publication US20240025919A1, “AZA-TETRACYCLIC OXAZEPINE COMPOUNDS AND USES THEREOF” (Genentech, Inc., priority 2022, published 2024).

Like-named read-outs stand apart in the source and are kept apart here.

The target of test [1] is KRAS G12D (Homo sapiens (Human), UniProt P01116, G12D). Kind of test: KRAS G12D LoEnz Biochemical Assay, BODIPY-GDP Exchange TR-FRET (SOS1-mediated nucleotide exchange). The conditions noted are these: read-out: KRas (G12D) GDP HTRF IC50. Background: In TR-FRET formats the signal depends on donor and acceptor labels being close together.
Chain of KRAS G12D (P01116-2 other isoform, or with tags, fused parts or gaps G12D): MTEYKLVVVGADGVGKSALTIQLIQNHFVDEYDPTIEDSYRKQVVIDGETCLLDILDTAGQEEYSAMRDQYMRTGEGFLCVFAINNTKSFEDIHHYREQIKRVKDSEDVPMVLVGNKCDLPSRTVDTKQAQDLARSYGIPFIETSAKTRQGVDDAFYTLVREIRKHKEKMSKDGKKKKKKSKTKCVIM
Test [2] concerns the target T1, KRAS WT (Homo sapiens (Human), UniProt P01116). Nature of the test: KRAS WT Biochemical Assay, BODIPY-GDP Exchange TR-FRET (Example 501; 3 nM KRAS WT, 3 nM SOS1, 60-minute incubation). An outline of the steps:
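SOS1-mediated exchange assay: 3 nM biotin-KRAS WT with terbium-streptavidin, started with 3 nM SOS1 and 300 nM BODIPY-GDP, HEPES pH 7.5 with MgCl2. TR-FRET (520/490 nm) read after 60 min; normalized to DMSO and full-inhibition control, IC50 from 4-parameter Hill fit.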

In test [3] the test system is HPAC (homozygous mutant KRAS G12D human pancreatic cell line). Kind of test: KRAS 3D-Cell Proliferation Assay, HPAC (CellTiter-Glo 3D, 7 days). In kind it is cell-based. The settings on record: HPAC 3D culture, read-out: Prolif HPAC 3D ATP IC50. How it is done:
(§1) Example 503: KRAS 3D-Cell Proliferation Assays. Cellular potencies of compounds are assessed by evaluating inhibition of proliferation in 3D cultures of homozygous mutant KRAS G12D human pancreatic cell lines (AsPC-1 and HPAC) as compared to a KRAS wild type human lung adenocarcinoma cell line (PC-9 and/or H1975). Cells are seeded into 384-well black round-bottom, ultra-low attachment assay plates in 50 uL cell growth medium (RPMI-1640 with 10% fetal bovine serum and 2 mM L-glutamine). After overnight incubation at 37° C. and 5% CO2, compounds solubilized in DMSO are added as dilution series to the wells in a total volume of 150 nL (0.3% DMSO final). The cells are incubated for 7 days at 37° C. and 5% CO2. Cell proliferation is quantitated by addition of 40 uL/well of CellTiter-GloO 3D (Promega), and the well contents are mixed 20× at high speed using liquid handling automation workstation (Bravo with 384-well head) and centrifuged at 1500 rpm for 2 minutes to eliminate bubbles. This reagent in combination with mechanical disruption releases the cellular ATP to promote activity in a luciferase-based enzyme/substrate chemiluminescent detection system. After a 30-minute incubation under ambient conditions with shaking and an additional 10 minutes without shaking, the luminescence is read on a plate reader (e.g. EnVision [PerkinElmer]). The results are normalized to percent inhibition based on the following control samples: DMSO (0% inhibition) and 1 uM staurosporine (100% inhibition). The normalized luminescence results are plotted against compound concentration, and the data are fit to a 4-parameter Hill equation to determine the IC50 values.
For orientation: Cellular ATP, detected with luciferase, serves as a proxy for viable cell number.

The subject of test [4] is H1975 (KRAS wild type human lung adenocarcinoma cell line). Nature of the test: KRAS 3D-Cell Proliferation Assay, H1975 (CellTiter-Glo 3D, 7 days). In kind it is cell-based. The conditions noted are these: H1975 3D culture, read-out: Prolif H1975 3D ATP IC50. How it is done:
as §1

For test [5], the target named is T1, KRAS WT. Kind of test: KRAS WT Biochemical Assay, BODIPY-GDP Exchange TR-FRET (Example 502; 0.06 nM KRAS WT, 15 nM GDP, 300 nM SOS1, 120-minute incubation). The settings on record: read-out: KRas HTRF IC50. An outline of the steps: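 Biotin-tagged recombinant KRAS WT (0.06 nM) preloaded with 15 nM GDP and Tb-streptavidin, 10 min RT, then exchange started with 300 nM SOS1 plus 300 nM BODIPY-GDP in HEPES pH 7.5 buffer with MgCl2. TR-FRET 520/490 ratio read after 120 min; normalized to DMSO and full-inhibition control; IC50 from 4-parameter fit.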

T1 sequence (P01116-2 other isoform, or with tags, fused parts or gaps): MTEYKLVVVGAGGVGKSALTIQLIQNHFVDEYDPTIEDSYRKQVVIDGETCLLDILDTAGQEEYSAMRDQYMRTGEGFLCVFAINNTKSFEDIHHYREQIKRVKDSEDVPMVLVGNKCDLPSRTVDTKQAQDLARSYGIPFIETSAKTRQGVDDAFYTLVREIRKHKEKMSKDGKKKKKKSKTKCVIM

Usually IC50 stands for the concentration that gives 50% inhibition. Take `Cc1nc(N)cc(-c2nc3c4c(nc(OCC5N(C)C[C@]56CC6(F)F)nc4c2F)N2C[C@H]4CC[C@H](N4)[C@H]2[C@H](C(F)(F)F)O3)c1C(F)(F)F` (single isomer, unassigned) [262 (isomer 3)]: the IC50 in test [1] came out at 41.1 nM; in test [2] (read-out: KRas HTRF IC50) it was 1080 nM; in test [3] (Homo sapiens, HPAC, 168 h), 971 nM; in test [4] (Homo sapiens, NCI-H1975, 168 h), 20000 nM.
`Cc1c(F)c(N)cc(-c2nc3c4c(nc(OC[C@@H]5C[C@@H](F)[C@H]6CCCN56)nc4c2F)N2C[C@H]4CC[C@H](N4)[C@H]2[C@H](C)O3)c1C(F)(F)F` (single isomer, unassigned) [Compound 160 (diast. 1)]: the IC50 came to 0.14 nM in test [1]; 31.3 nM in test [5]; 1000 nM in test [4] (Homo sapiens, NCI-H1975, 168 h).
For `Cc1c(F)c(N)cc(-c2nc3c4c(nc(OC[C@@]56CCCN5C[C@H](F)C6)nc4c2F)N2CCN[C@@H](C)[C@H]2[C@H](C)O3)c1C(F)(F)F` (single isomer, unassigned) [234 (isomer 1)], the IC50 in test [1] stood at 1330 nM; in test [2] (read-out: KRas HTRF IC50) it was 23300 nM; in test [3] (Homo sapiens, HPAC, 168 h) it was 2000 nM; in test [4] (Homo sapiens, NCI-H1975, 168 h), 8570 nM.
As to `Cc1c(F)c(N)cc(-c2nc3c4c(nc(OC[C@H]5C[C@@H]6COCCN65)nc4c2F)N2C[C@H]4CC[C@H](N4)[C@H]2[C@H](C)O3)c1C(F)(F)F` (single isomer, unassigned) [159 (diast. 1)], the IC50 in test [1] was determined as 0.28 nM; in test [5], 64 nM; in test [4] (Homo sapiens, NCI-H1975, 168 h) it was 4310 nM.
With `C[C@@H]1Oc2nc(-c3cc(N)c(F)cc3[C@H](C)C(F)F)c(F)c3nc(OC[C@@]45CCCN4C[C@H](F)C5)nc(c23)N2C[C@H]3CC[C@H](N3)[C@@H]12` (single isomer, unassigned) [181 (isomer 1)], the IC50 in test [1] is 159 nM; in test [5] it was 10900 nM; in test [3] (Homo sapiens, HPAC, 168 h), 2000 nM.
`Cc1nc(N)cc(-c2nc3c4c(nc(OC[C@]56CCN5CC(F)(F)C6)nc4c2F)N2C[C@H]4CC[C@H](N4)[C@H]2[C@H](C(F)(F)F)O3)c1C(F)(F)F` (single isomer, unassigned) [252 (isomer 2)]: the IC50 in test [1] was found to be 5.89 nM; in test [2] (read-out: KRas HTRF IC50) it was 159 nM; in test [4] (Homo sapiens, NCI-H1975, 168 h), 20000 nM.
Regarding `Cc1c(F)c(N)cc(-c2nc3c4c(nc(OC[C@@]56CCCN5C[C@H](F)C6)nc4c2F)N2C[C@H]4CC[C@H](N4)[C@H]2[C@@H](C(F)F)O3)c1C(F)(F)F` (single isomer, unassigned) [238 (isomer 2)], the IC50 in test [1] came out at 13000 nM; in test [2] (read-out: KRas HTRF IC50) it was 4800 nM; in test [3] (Homo sapiens, HPAC, 168 h), 2000 nM; in test [4] (Homo sapiens, NCI-H1975, 168 h), 20000 nM.
In the case of `Cc1c(F)c(N)cc(-c2nc3c4c(nc(OC[C@H]5CC[C@@H]6CN(C)C(=O)CN56)nc4c2F)N2C[C@H]4CC[C@H](N4)[C@H]2[C@H](C)O3)c1C(F)(F)F` (single isomer, unassigned) [131 (isomer 4)], the values for the IC50 in test [1], in test [5] and in test [3] were 1.14 nM, 195 nM and 90 nM, respectively.
As to `Cc1c(F)c(N)cc(-c2nc3c4c(nc(OCC56CCN5CC(F)(F)C6)nc4c2F)N2C[C@H]4CC[C@H](N4)[C@H]2[C@H](C(F)(F)F)O3)c1C(F)(F)F` (single isomer, unassigned) [263 (diast. 2)], the half-maximal inhibitory concentration (IC50) in test [1] was 0.53 nM; in test [2] (read-out: KRas HTRF IC50), 15.4 nM; in test [3] (Homo sapiens, HPAC, 168 h), 15.4 nM; in test [4] (Homo sapiens, NCI-H1975, 168 h) it was 336 nM.
Take `Cc1nc(N)cc(-c2nc3c4c(nc(OC[C@H]5N(C)C[C@@]56CC6(F)F)nc4c2F)N2C[C@H]4CC[C@H](N4)[C@H]2[C@H](C(F)(F)F)O3)c1C(F)(F)F` (single isomer, unassigned) [262 (isomer 2)]: the IC50 in test [1] amounted to 7.02 nM; in test [2] (read-out: KRas HTRF IC50), 186 nM; in test [4] (Homo sapiens, NCI-H1975, 168 h), 20000 nM.
On to `Cc1c(F)c(N)cc(-c2nc3c4c(nc(OC[C@H]5COC[C@H]6CCCN65)nc4c2F)N2C[C@H]4CC[C@H](N4)[C@H]2[C@H](C)O3)c1C(F)(F)F` (single isomer, unassigned) [121 (isomer 1)], for which the IC50 in test [1] was 0.68 nM; in test [5], 108 nM; in test [4] (Homo sapiens, NCI-H1975, 168 h), 1340 nM.
In the case of `Cc1c(F)c(N)cc(-c2nc3c4c(nc(OC[C@@]56CCCN5C[C@H](F)C6)nc4c2F)N2CCN[C@H](C)[C@@H]2[C@H](C)O3)c1C(F)(F)F` (single isomer, unassigned) [234 (isomer 3)], the IC50 in test [1] amounted to 4810 nM; in test [2] (read-out: KRas HTRF IC50), 4570 nM; in test [3] (Homo sapiens, HPAC, 168 h), 2000 nM; in test [4] (Homo sapiens, NCI-H1975, 168 h), 16600 nM.
Turning to `Cc1c(F)c(N)cc(-c2nc3c4c(nc(OC[C@@]56CCCN5C[C@H](F)C6)nc4c2F)N2CCN[C@@H](C)[C@H]2[C@@H](C)O3)c1C(F)(F)F` (single isomer, unassigned) [234 (isomer 2)], the IC50 turned out to be 209 nM in test [1]; 513 nM in test [2] (read-out: KRas HTRF IC50); 2000 nM in test [3] (Homo sapiens, HPAC, 168 h); 9750 nM in test [4] (Homo sapiens, NCI-H1975, 168 h).
Regarding `Cc1nc(N)cc(-c2nc3c4c(nc(OCC5N(C)CC56CC6(F)F)nc4c2F)N2C[C@H]4CC[C@H](N4)[C@H]2[C@H](C(F)(F)F)O3)c1C(F)(F)F` (single isomer, unassigned) [262 (isomer 4)], the IC50 in test [1] was 1.14 nM; in test [2] (read-out: KRas HTRF IC50), 35.1 nM; in test [3] (Homo sapiens, HPAC, 168 h), 43.4 nM; in test [4] (Homo sapiens, NCI-H1975, 168 h), 4380 nM.
Consider `Cc1c(F)c(N)cc(-c2nc3c4c(nc(OC[C@@]56CCCN5C[C@H](F)C6)nc4c2F)N2CCN[C@H](C)[C@@H]2[C@@H](C)O3)c1C(F)(F)F` (single isomer, unassigned) [234 (isomer 4)], for which the IC50 came out at 589 nM in test [1]; 510 nM in test [2] (read-out: KRas HTRF IC50); 2000 nM in test [3] (Homo sapiens, HPAC, 168 h); 8500 nM in test [4] (Homo sapiens, NCI-H1975, 168 h).
For the compound `Cc1c(F)c(N)cc(-c2nc3c4c(nc(OC[C@@]56CCCN5C[C@H](F)C6)nc4c2F)N2C[C@H]4CC[C@H](N4)[C@H]2[C@H](C(F)F)O3)c1C(F)(F)F` (single isomer, unassigned) [238 (isomer 1)], the IC50 in test [1] was found to be 7700 nM; in test [2] (read-out: KRas HTRF IC50) it was 3810 nM; in test [3] (Homo sapiens, HPAC, 168 h), 2000 nM.
The like results for `Cc1c(F)c(N)cc(-c2nc3c4c(nc(OC[C@@]56CCN(C)C5COC6)nc4c2F)N2C[C@H]4CC[C@H](N4)[C@H]2[C@H](C)O3)c1C(F)(F)F` (single isomer, unassigned) [258 (isomer 1)] were, in that order, 0.09 nM, 14.9 nM and 5 nM.
As to `Cc1c(F)c(N)cc(-c2nc3c4c(nc(OC[C@@]56CCCN5C[C@H](F)[C@@H]6F)nc4c2F)N2C[C@H]4CC[C@H](N4)[C@H]2[C@H](C)O3)c1C(F)(F)F` (single isomer, unassigned) [143 (isomer 3)], the IC50 was determined as 0.43 nM in test [1]; 47.3 nM in test [5]; 1090 nM in test [4] (Homo sapiens, NCI-H1975, 168 h).
As for `C[C@@H]1Oc2nc(-c3c(Cl)c(N)c(F)c(F)c3C(F)(F)F)c(F)c3nc(OC[C@@]45CCCN4C[C@H](F)C5)nc(c23)N2C[C@H]3CC[C@H](N3)[C@@H]12` (atropisomer, axis not shown; (aS)) [Compound 106, 2-Chloro-5,6-difluoro-3-((5S,5aS,6S,9R)-1-fluoro-12-(((2R,7aS)-2-fluorotetrahydro-1H-pyrrolizin-7a(5H)-yl)methoxy)-5-methyl-5a,6,7,8,9,10-hexahydro-5H-4-oxa-3,10a,11,13,14-pentaaza-6,9-methanonaphtho[1,8-ab]heptalen-2-yl)-4-(trifluoromethyl)aniline], in test [4], the IC50 came to 622 nM.
Take `Cc1cc(N)c(F)c(-c2nc3c4c(nc(OC[C@@]56CCCN5C[C@H](F)C6)nc4c2F)N2C[C@H]4CC[C@H](N4)[C@H]2[C@H](C)O3)c1C(F)(F)F` [Compound 34, 2-Fluoro-3-((5S,5aS,6S,9R)-1-fluoro-12-(((2R,7aS)-2-fluorotetrahydro-1H-pyrrolizin-7a(5H)-yl)methoxy)-5-methyl-5a,6,7,8,9,10-hexahydro-5H-4-oxa-3,10a,11,13,14-pentaaza-6,9-methanonaphtho[1,8-ab]heptalen-2-yl)-5-methyl-4-(trifluoromethyl)aniline]: the IC50 stood at 0.235 nM in test [1], 2.13 nM in test [2] (read-out: KRas(wt) GDP HTRF IC50) and 4.29 nM in test [5].
